Measurements from ChEMBL document CHEMBL4418494, “Small molecule inhibitors of AGBL2” (2015).
The source made the active and inactive calls. No cut-off for these calls is given here.

Target: T1, Cytosolic carboxypeptidase 2 (Homo sapiens) (UniProt Q5U5Z8)
T1 sequence (whole entry): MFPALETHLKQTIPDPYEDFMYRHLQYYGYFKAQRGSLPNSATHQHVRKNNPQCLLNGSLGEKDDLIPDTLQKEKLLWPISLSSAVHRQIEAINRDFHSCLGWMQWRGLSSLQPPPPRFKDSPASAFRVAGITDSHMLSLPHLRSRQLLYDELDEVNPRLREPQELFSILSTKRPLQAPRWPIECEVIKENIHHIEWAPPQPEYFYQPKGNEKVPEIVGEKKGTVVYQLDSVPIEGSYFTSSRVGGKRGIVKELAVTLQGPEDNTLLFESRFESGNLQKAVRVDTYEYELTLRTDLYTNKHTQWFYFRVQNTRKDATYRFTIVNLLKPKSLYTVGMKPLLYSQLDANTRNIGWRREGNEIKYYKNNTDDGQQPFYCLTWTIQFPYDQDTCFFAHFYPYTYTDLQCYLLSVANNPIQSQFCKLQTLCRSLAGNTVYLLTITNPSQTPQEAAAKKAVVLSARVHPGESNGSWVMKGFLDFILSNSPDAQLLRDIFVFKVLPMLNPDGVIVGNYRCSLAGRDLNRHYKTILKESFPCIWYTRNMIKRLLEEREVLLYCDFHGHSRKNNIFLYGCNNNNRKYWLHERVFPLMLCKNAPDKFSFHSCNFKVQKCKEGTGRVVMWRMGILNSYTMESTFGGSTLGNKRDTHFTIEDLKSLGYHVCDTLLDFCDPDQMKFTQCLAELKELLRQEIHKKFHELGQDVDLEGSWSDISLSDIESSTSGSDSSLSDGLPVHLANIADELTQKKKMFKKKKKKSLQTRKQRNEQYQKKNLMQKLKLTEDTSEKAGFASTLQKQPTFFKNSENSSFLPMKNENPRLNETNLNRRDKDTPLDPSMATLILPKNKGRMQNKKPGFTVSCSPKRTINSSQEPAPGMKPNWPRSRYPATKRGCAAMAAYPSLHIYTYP
Test: Inhibition of AGBL2 (unknown origin) expressed in HEK293 stably expressing TIG1 assessed as reduction in de-tyrosinated to tyrosinated ratio of alpha-tubulin at 1 uM incubated for 2 hrs by Western blotting analysis relative to control
Type: cell-based

inhibition (active/inactive call)	Structure (SMILES)
Active	CC(C)c1ccc(Sc2ccc(F)cc2CC(=O)O)cc1
Active	Cc1cc(F)cnc1CC(=O)O
Active	Cc1cc(C(F)(F)F)cnc1CC(=O)O
Active	O=C(O)Cc1cccc(C(=O)Nc2ccc3c(c2)OCO3)c1
